Assay [1] has as its system NQO1 mRNA in BEAS-2B cells. As to the kind of experiment: Beas2B NQO1 mRNA cell based assay. Also noted: species or system human. The note with it: 24 h compound treatment, increase in NQO1 mRNA vs vehicle (0.1% DMSO), read-out: EC50. How it is done:
Beas2B NQO1 mRNA Cell Based Assay
The up regulation of the NRF2 mediated gene NAD(P)H:quinone acceptor oxidoreductase 1 (NQO1) was measured using the following assay method: BEAS-2B cells (ATCC CRL-9609) were plated in 96-well clear plates at 20,000 cells/well in 75 μL of cell culture media and incubated overnight (37° C., 5% CO2). On day 2, 25 μL of compound or controls were added to the cells for 24 h. On day 3, the medium was aspirated from the plate and the Cells-to-CT™ 1-Step TaqMan® Kit (Ambion A25603) was used to perform expression analysis directly from cultured cells without RNA purification according to the manufacturer's instructions.
Briefly, cells were washed with ice cold PBS and 22.5 μL of room-temperature DNase/Lysis solution was added to the cells and incubated at room temperature for 5 minutes. To stop the reaction, 2.25 μL of stop solution was added to the cell lysate. The samples were diluted 1:5 using nuclease free water and 2.5 μL transferred into the PCR plate. Real-time PCR was performed using the C-1000 Thermal Cycler (Bio-Rad) using human beta actin as the internal control. The cDNA was amplified with a specific primer for NQO1 using the 1-step RT-PCR master mix (Ambion Cells-to-CT™ 1-Step TaqMan® Kit A25603). The primers/probes sets that were used for amplification of cDNA were obtained from TaqMan Gene Expression Assays (Applied Biosystems). The comparative CT (ΔΔCT) relative quantification method was used to calculate the relative mRNA level of the target gene NQO1 as described in the Applied Biosystems Chemistry Guide.

The target in assay [2] is human KEAP1 (N-term, residues 321-609) (Homo sapiens, UniProt Q14145). As to the kind of experiment: biochemical.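 Further: fluorescence polarization competition assay of Kelch domain binding to NRF2, 12-point 1:3 dilution series from 10 µM, read after 1 h at room temperature, floor 10 nM.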
Sequence of human KEAP1 (N-term, residues 321-609) (Q14145 321-609): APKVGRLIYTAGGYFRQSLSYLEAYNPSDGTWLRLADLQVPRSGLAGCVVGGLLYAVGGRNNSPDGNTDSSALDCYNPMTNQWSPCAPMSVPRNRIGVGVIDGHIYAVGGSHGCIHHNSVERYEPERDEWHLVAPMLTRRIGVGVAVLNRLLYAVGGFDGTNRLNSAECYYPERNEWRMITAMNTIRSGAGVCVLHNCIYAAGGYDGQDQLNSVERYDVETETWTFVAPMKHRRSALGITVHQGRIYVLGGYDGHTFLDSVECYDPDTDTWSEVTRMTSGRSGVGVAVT

Like-named read-outs stand apart in the source and are kept apart here.

As to `C[C@@H]1CCN(C[C@@H]2c3c(OCc4nnn(C)c4C(F)F)ccc(Cl)c3CCN2C(=O)[C@@H]2CCCC[C@]2(C)C(=O)O)C1=O` [Example 112, (1S,2R)-2-((S)-5-Chloro-8-((5-(difluoromethyl)-1-methyl-1H-1,2,3-triazol-4-yl)methoxy)-1-(((R)-3-methyl-2-oxopyrrolidin-1-yl)methyl)-1,2,3,4-tetrahydroisoquinoline-2-carbonyl)-1-methylcyclohexane-1-carboxylic acid], the EC50 in assay [1] (Homo sapiens, BEAS-2B, 24 h) was 280 nM. The compound further yielded a 50% inhibitory concentration (IC50) in assay [2] of 9.4 nM.
The like results for `Cn1cnc2ccc(COc3ccc(Cl)c4c3[C@@H](CN3CCCC3=O)N(C(=O)[C@@H]3CCCC[C@@H]3C(=O)O)CC4)nc21` [Example 99, (1S,2R)-2-((S)-5-chloro-8-((3-methyl-3H-imidazo [4,5-b]pyridin-5-yl)methoxy)-1-((2-oxopyrrolidin-1-yl)methyl)-1,2,3,4-tetrahydroisoquinoline-2-carbonyl) cyclohexane-1-carboxylic acid] were, in that order, 520 nM and 9.7 nM.
As to `Cn1nnc(COc2ccc(Cl)c3c2[C@@H](CN2CCCC2=O)N(C(=O)[C@@H]2CCCC[C@]2(F)C(=O)O)CC3)c1C(F)F` [Example 105, (1R,2S)-2-((S)-5-Chloro-8-((5-(difluoromethyl)-1-methyl-1H-1,2,3-triazol-4-yl)methoxy)-1-((2-oxopyrrolidin-1-yl)methyl)-1,2,3,4-tetrahydroisoquinoline-2-carbonyl)-1-fluorocyclohexane-1-carboxylic acid], the EC50 in assay [1] (Homo sapiens, BEAS-2B, 24 h) was determined as 24 nM. In assay [2], the concentration for half-maximal inhibition (IC50) is 7.1 nM.
As for `Cn1nnc(COc2ccc(Cl)c3c2[C@@H](CN2CC(C(F)(F)F)CC2=O)N(C(=O)[C@@H]2CCCC[C@]2(C)C(=O)O)CC3)c1C(F)F` (single isomer, unassigned) [Example 213], the concentration for a half-maximal effect (EC50) in assay [1] is 2.2 nM. Also, the half-inhibitory concentration (IC50) in assay [2] turned out to be 5.2 nM.
In the case of `Cn1cnc(COc2ccc(Br)c3c2[C@@H](CN2Cc4ccccc4C2=O)N(C(=O)[C@@H]2CCCC[C@@H]2C(=O)O)CC3)n1` [Example 39, (1S,2R)-2-((S)-5-bromo-8-((1-methyl-1H-1,2,4-triazol-3-yl)methoxy)-1-((1-oxoisoindolin-2-yl)methyl)-1,2,3,4-tetrahydroisoquinoline-2-carbonyl)cyclohexane-1-carboxylic acid], the 50% effective concentration (EC50) in assay [1] (Homo sapiens, BEAS-2B, 24 h) was 45 nM. In addition, in assay [2], the midpoint of inhibition, the IC50, lay at 8.3 nM.
For `C[C@H]1CCN(C[C@@H]2c3c(OCc4nnn(C)c4C(F)(F)F)ccc(Cl)c3CCN2C(=O)[C@@H]2CCCC[C@]2(C)C(=O)O)C1=O` [Example 130, (1S,2R)-2-((S)-5-chloro-1-(((S)-3-methyl-2-oxopyrrolidin-1-yl)methyl)-8-((1-methyl-5-(trifluoromethyl)-1H-1,2,3-triazol-4-yl)methoxy)-1,2,3,4-tetrahydroisoquinoline-2-carbonyl)-1-methylcyclohexane-1-carboxylic acid], in that order: 21 nM and 6.7 nM.
For `Cn1cnnc1COc1ccc(Cl)c2c1[C@@H](CN1CC3(CC3)CC1=O)N(C(=O)[C@@H]1CCCC[C@]1(C)C(=O)O)CC2` [Example 175, (1S,2R)-2-((S)-5-chloro-8-((4-methyl-4H-1,2,4-triazol-3-yl)methoxy)-1-((6-oxo-5-azaspiro [2.4]heptan-5-yl)methyl)-1,2,3,4-tetrahydroisoquinoline-2-carbonyl)-1-methylcyclohexane-1-carboxylic acid], in that order: 35 nM and 14 nM.
The like results for `CC(C)n1cc(COc2ccc(Br)c3c2[C@@H](CN2C[C@H](C)CC2=O)N(C(=O)[C@@H]2CCCC[C@@H]2C(=O)O)CC3)nn1` [Example 75, (1S,2R)-2-((S)-5-Bromo-8-((1-isopropyl-1H-1,2,3-triazol-4-yl)methoxy)-1-(((R)-4-methyl-2-oxopyrrolidin-1-yl)methyl)-1,2,3,4-tetrahydroisoquinoline-2-carbonyl) cyclohexane-1-carboxylic acid] were, in that order, 8.3 nM and 6.5 nM.
On to `C[C@H]1CCN(C[C@@H]2c3c(OCc4nnn(C)c4C(F)F)ccc(Cl)c3CCN2C(=O)[C@@H]2CCC[C@]2(C)C(=O)O)C1=O` [Example 114, (1S,2R)-2-((1S)-5-Chloro-8-((5-(difluoromethyl)-1-methyl-1H-1,2,3-triazol-4-yl)methoxy)-1-(((S)-3-methyl-2-oxopyrrolidin-1-yl)methyl)-1,2,3,4-tetrahydroisoquinoline-2-carbonyl)-1-methylcyclopentane-1-carboxylic acid], for which, in assay [1] (Homo sapiens, BEAS-2B, 24 h), the EC50 came out at 16 nM. In assay [2], this compound had an IC50 of 7.4 nM.
The like results for `Cn1nnc(COc2ccc(Cl)c3c2[C@@H](CN2CC4(CC4)CC2=O)N(C(=O)[C@@H]2CC(F)(F)CC[C@]2(C)C(=O)O)CC3)c1C(F)F` [Example 217, (1S,2R)-2-((S)-5-chloro-8-((5-(difluoromethyl)-1-methyl-1H-1,2,3-triazol-4-yl)methoxy)-1-((6-oxo-5-azaspiro[2.4]heptan-5-yl)methyl)-1,2,3,4-tetrahydroisoquinoline-2-carbonyl)-4,4-difluoro-1-methylcyclohexane-1-carboxylic acid] were, in that order, 43 nM and 9.8 nM.
The like results for `O=C(O)[C@H]1CCCC[C@H]1C(=O)N1CCc2c(Br)ccc(OCc3nnc4n3CCCC4)c2[C@H]1CN1Cc2ccccc2C1=O` [Example 44, (1S,2R)-2-((S)-5-bromo-1-((1-oxoisoindolin-2-yl)methyl)-8-((5,6,7,8-tetrahydro-[1,2,4]triazolo[4,3-a]pyridin-3-yl)methoxy)-1,2,3,4-tetrahydroisoquinoline-2-carbonyl)cyclohexane-1-carboxylic acid] were, in that order, 10 nM and 4.2 nM.
Consider `O=C(O)[C@H]1CCCC[C@H]1C(=O)N1CCc2c(Br)ccc(OCc3nnc4ccccn34)c2[C@H]1CN1CCCC1=O` [Example 64, (1S,2R)-2-((S)-8-[(1,2,4]triazolo[4,3-a]pyridin-3-ylmethoxy)-5-bromo-1-((2-oxopyrrolidin-1-yl)methyl)-1,2,3,4-tetrahydroisoquinoline-2-carbonyl)cyclohexane-1-carboxylic acid], for which the EC50 in assay [1] (Homo sapiens, BEAS-2B, 24 h) was 23 nM. Also, in assay [2], inhibition was half-maximal at 6.3 nM (IC50).
On to `O=C(O)[C@H]1CCCC[C@H]1C(=O)N1CCc2c(Br)ccc(OCc3ccn4ccnc4c3)c2[C@H]1CN1Cc2ccccc2C1=O` [Example 32], for which the concentration for a half-maximal effect (EC50) in assay [1] (Homo sapiens, BEAS-2B, 24 h) worked out at 75 nM. Moreover, the IC50 in assay [2] is 6 nM.
For `C[C@H]1CCN(C[C@@H]2c3c(OCc4nnn(C)c4C(F)F)ccc(Cl)c3CCN2C(=O)[C@@H]2CCCC[C@]2(C)C(=O)O)C1=O` [Example 115, (1S,2R)-2-((1S)-5-Chloro-8-((5-(difluoromethyl)-1-methyl-1H-1,2,3-triazol-4-yl)methoxy)-1-(((S)-3-methyl-2-oxopyrrolidin-1-yl)methyl)-1,2,3,4-tetrahydroisoquinoline-2-carbonyl)-1-methylcyclohexane-1-carboxylic acid], in that order: 4.2 nM and 9.7 nM.
For `Cn1nnc(COc2ccc(Cl)c3c2[C@@H](CN2CC4(CC4)CC2=O)N(C(=O)[C@@H]2C[C@@H](F)CC[C@]2(C)C(=O)O)CC3)c1C(F)F` [Example 218, (1S,2R,4S)-2-((S)-5-chloro-8-((5-(difluoromethyl)-1-methyl-1H-1,2,3-triazol-4-yl)methoxy)-1-((6-oxo-5-azaspiro[2.4]heptan-5-yl)methyl)-1,2,3,4-tetrahydroisoquinoline-2-carbonyl)-4-fluoro-1-methylcyclohexane-1-carboxylic acid], in that order: 0.98 nM and 6.8 nM.
The like results for `Cn1nnc(COc2ccc(Cl)c3c2[C@@H](CN2CCCC2=O)N(C(=O)C2CC(F)(F)CC2C(=O)O)CC3)c1C(F)F` (stereo partly drawn) [Example 101, 2-((S)-5-chloro-8-((5-(difluoromethyl)-1-methyl-1H-1,2,3-triazol-4-yl)methoxy)-1-((2-oxopyrrolidin-1-yl)methyl)-1,2,3,4-tetrahydroisoquinoline-2-carbonyl)-4,4-difluorocyclopentane-1-carboxylic acid] were, in that order, 710 nM and 1900 nM.
As for `CCn1nnc(COc2ccc(Cl)c3c2[C@@H](CN2CCCC2=O)N(C(=O)[C@@H]2CCCC[C@@H]2C(=O)O)CC3)c1C(F)F` [Example 79, (1S,2R)-2-((S)-5-Chloro-8-((5-(difluoromethyl)-1-ethyl-1H-1,2,3-triazol-4-yl)methoxy)-1-((2-oxopyrrolidin-1-yl)methyl)-1,2,3,4-tetrahydroisoquinoline-2-carbonyl)cyclohexane-1-carboxylic acid], the concentration for a half-maximal effect (EC50) in assay [1] (Homo sapiens, BEAS-2B, 24 h) is 1.2 nM. In assay [2], this compound gave a concentration for half-maximal inhibition (IC50) of 6.7 nM.

One may read the EC50 as the concentration at which the effect is half-maximal. Usually IC50 stands for the concentration that inhibits the measured activity by half. Read a high IC50 as weaker potency.
